pIC50: −log10 of the molar value.
System: LPS-activated NO production in RAW264.7 cells
Assay: Inhibition of LPS-activated NO production in RAW264.7 cells (Griess assay)
Assay type: cell-based
Settings: Mus musculus, LPS-activated RAW264.7 cells
Experimental: All isolated compounds (except for 14 with limited amount) were tested for their inhibition activity against LPS-activated NO production in RAW264.7 cells using the Griess assay. […] The structure of PGA2 made a more positive contribution to the anti-inflammatory activity than those of PGB2 (16 vs. 15).
The anti-inflammation activity of the isolated compounds was evaluated according to the reported procedures.

| SMILES | pIC50 |
| --- | --- |
| CC1=CC2OCC(C)=C2CCC2(C)OC2CCC(C)(O)C=CC1 (stereo not drawn) [Compound 6] | 4.57 |
| C=C1CC[C@@H](C(C)C)/C=C/[C@@](C)(O)C/C=C/[C@](C)(O)CC[C@@H]1O [Compound 7, (1S,2E,4S,6E,8S,11R)-2,6,12(20)-cembratriene-4,8,11-triol] | 4.75 |
| CC(=O)C=C=C1C(C)(C)C[C@H](OC(C)=O)C[C@@]1(C)O [Compound 9, apo-9′-fucoxanthinone] | 4.49 |
| CCCCCC(O)C=CC1=C(CC=CCCCC(=O)O)C(=O)CC1 (stereo not drawn) [Compound 10, (5E)-PGB2] | 4.69 |
| CCCCCC(O)CCC1=C(CC=CCCCC(=O)O)C(=O)CC1 (stereo not drawn) [Compound 12, 13,14-dihydro-PGB2] | 4.61 |
| COc1ccc2c(c1)c(CC(=O)O)c(C)n2C(=O)c1ccc(Cl)cc1 [indomethacin, reference compound] | 4.40 |

Now those with a higher pIC50, led by results:

| pIC50 | SMILES |
| --- | --- |
| 4.79 | CCCCCC(O)CCC1=C(CC=CCCCC(=O)OC)C(=O)CC1 (stereo not drawn) [Compound 13, 13,14-dihydro-PGB2-Me] |
| 4.80 | CCCCC[C@H](O)/C=C/C1=C(C/C=C\CCCC(=O)O)C(=O)CC1 [Compound 15, PGB2] |
| 5.15 | CCCCC[C@H](O)/C=C/[C@H]1C=CC(=O)[C@@H]1C/C=C\CCCC(=O)O [Compound 16, PGA2] |
